The subject of one data set is Microsporum canis B68128. Nature of the data set: Antifungal activity in vitro (resazurin susceptibility screen), Inf. B. The note with it: Microsporum canis, B68128, Microsporum canis B68128; 27 °C, 9 days, resa time 24 hours; read-out: Inf. B pIC50 (converted). In kind it is cell-based. The method in brief:
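Each well was inoculated with 10^3 cfu of fungus onto dried, pre-spotted compound serial dilutions in RPMI-MOPS medium, with fungal growth read by resazurin. Growth was referenced to drug-free culture (100%) and medium-only (0%) controls on each plate.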

The test system of data set [1] is Cryptococcus neoformans B66663. Nature of the data set: Antifungal activity in vitro (resazurin susceptibility screen), Inf. F. In kind it is cell-based. The note with it: Cryptococcus neoformans, B66663, Cryptococcus neoformans B66663; 37 °C, 24 hours, resa time 4 hours; read-out: Inf. F pIC50 (converted). The method in brief: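 Growth was normalised between a fungal culture lacking antifungal (100%) and RPMI-MOPS medium only (0%), both on every plate. Wells held pre-spotted serial dilutions of compound and received 10^3 cfu of freshly diluted (1/1000) cryopreserved fungus.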

The subject of data set [2] is Scedosporium apiospermum IHEM3817. The experiment in a line: Antifungal activity in vitro (resazurin susceptibility screen), Inf. H. It counts as cell-based. The following applies: 37 °C, 48 hours, resa time 17 hours, read-out: Inf. H pIC50 (converted). The protocol:
(§1) The standard susceptibility screen was performed in 96-well plates (U-bottom, Greiner Bio-One). […] These serial dilutions (10 n1) were then spotted onto test-plates that could be stored in the dark at 4° C. for a maximum period of 2 weeks. […] The different fungal species/isolates (Table 3a) were cryopreserved and 1/1000 diluted in medium just prior to use. A standard inoculum of 200 μl containing 10^3 colony-forming unit (cfu) was then added to each well. A positive control (100% growth=fungal culture without antifungal) and a negative control (0% growth ═RPMI-MOPS medium) were included on each plate. […] [table]

Data set [3] deals with Scedosporium prolificans IHEM21157. Nature of the data set: Antifungal activity in vitro (resazurin susceptibility screen), Inf. I. The following applies: Lomentospora prolificans, 37 °C, 48 hours, resa time 17 hours, read-out: Inf. I pIC50 (converted). In kind it is cell-based. How it is done:
as §1

The next data set has as its system Rhizopus oryzae IHEM5223. Nature of the data set: Antifungal activity in vitro (resazurin susceptibility screen), Inf. J. It counts as cell-based. The following applies: Rhizopus arrhizus, 37 °C, 24 hours, resa time 6 hours, read-out: Inf. J pIC50 (converted). How it is done: as §1
The nature of data set [4]: Liver metabolic stability assay, gpLM. In kind it is in vitro ADME, guinea pig. The note with it: guinea pig microsomes, 1 mg protein/ml, 5 μM test compound, 15 min, 37 °C.
Data set [5] in a line: Plasma protein binding assay (rapid equilibrium device). It counts as in vitro ADME. The following applies: guinea pig plasma, equilibrium dialysis 4 h at 37 °C, read-out: fraction bound (converted). How it is done:
Plasma was freshly prepared by centrifugation of guinea pig blood for 10 min at 1900 g in K3-EDTA (Ethylenediaminetetraacetic acid) coated tubes. The plasma protein binding of compounds was assessed at 5 μM concentrations as described by Van Liemp et al. 2010 (Van Liemp S, Morrison D, Sysmans L, Nelis P & Mortishire-Smith R (2010). Development and Validation of a Higher-Throughput Equilibrium Dialysis Assay for Plasma Protein Binding. Journal of the Association for Laboratory Automation, 2010, in press) using a rapid equilibrium device (RED). Briefly, guinea pig plasma was mixed with 5 μM test compound and then applied to the RED. Equilibrium was achieved after 4 h incubation at 37° C. Compound concentrations in the buffer and plasma compartment of the device were measured by LC-MS/MS.

The next data set addresses CYP3A4 (Homo sapiens, UniProt P08684). The experiment in a line: Cytochrome P450 inhibition, Protocol A, cDNA expressed proteins, fluorogenic substrates. In kind it is in vitro ADME. The following applies: % inhibition at 10 μM, cDNA expressed protein; for hCYP3A4_BFC_Pct_Inh: substrate BFC; for hCYP3A4_BQ_Pct_Inh: substrate BQ; for hCYP3A4_DBF_Pct_Inh: substrate DBF. An outline of the steps:
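cDNA-expressed enzymes with fluorogenic substrates (three separate ones for CYP3A4) in sodium/potassium buffer pH 7.4 plus NADPH-generating system. Compounds at 1 nM to 10 μM final, prewarmed 5 min at 37° C, reaction started with NADP+, stopped, then fluorescence measured.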

A short description of data set [6]: Liver metabolic stability assay, mLM. In kind it is in vitro ADME. The following applies: mouse liver microsomes, 1 mg protein/ml, 5 μM test compound, 15 min, 37 °C. The method in brief:
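Microsomes pre-incubated 5 min at 37° C, reaction started with 5 μM test compound and stopped with DMSO at 0 and 15 min. Supernatant analysed by LC-MS/MS (ion-trap, APCI) to give % compound remaining.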

Sequence of CYP3A4 (P08684 whole entry): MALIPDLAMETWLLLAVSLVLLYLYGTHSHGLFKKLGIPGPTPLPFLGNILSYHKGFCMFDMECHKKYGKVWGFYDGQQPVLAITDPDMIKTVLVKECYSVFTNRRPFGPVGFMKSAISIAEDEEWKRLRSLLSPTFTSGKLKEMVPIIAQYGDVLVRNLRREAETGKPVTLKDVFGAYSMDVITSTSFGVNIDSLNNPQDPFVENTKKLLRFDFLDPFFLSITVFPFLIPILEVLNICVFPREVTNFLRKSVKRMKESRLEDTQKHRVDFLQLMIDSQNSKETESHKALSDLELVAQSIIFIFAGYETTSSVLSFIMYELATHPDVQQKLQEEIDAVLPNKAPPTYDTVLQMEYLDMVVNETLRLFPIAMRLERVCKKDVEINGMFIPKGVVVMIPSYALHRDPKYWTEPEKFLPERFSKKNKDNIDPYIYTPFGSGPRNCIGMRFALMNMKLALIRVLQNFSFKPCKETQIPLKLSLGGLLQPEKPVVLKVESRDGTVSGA

In turn, `CC(=O)c1ccc(C2=NCc3cccc(Cl)c3-n3cccc32)cc1` [Compound 15, 1-[4-(10-chloro-6H-pyrrolo[1,2-a][1,4]benzodiazepin-4-yl)phenyl]-ethanone] showed a melting point of 171.4 to 171.8 °C. Besides, in the data set with Microsporum canis B68128, the IC50 is 631 nM. Moreover, in [1], the IC50 is 2 µM. In addition, in data set [2], the IC50 is 10 µM. In data set [3], the IC50 is 2000 nM. Further, the IC50 in the data set with Rhizopus oryzae IHEM5223 is greater than 63.1 µM. The “%-compound metabolised Met_gpLM” value in data set [4] is 44%. The fraction unbound at 4 h, 5 μM in data set [5] is 0.0152. For the same compound, on CYP3A4, the hCYP3A4_BFC_Pct_Inh was 1%, the hCYP3A4_BQ_Pct_Inh amounted to 40% and the hCYP3A4_DBF_Pct_Inh was 16%.

For the compound `CC(=O)c1cccc(C2=NCc3c(Cl)cccc3-n3cccc32)c1` [Compound 16, 1-[3-(7-chloro-6H-pyrrolo[1,2-a][1,4]benzodiazepin-4-yl)phenyl]-ethanone], the IC50 in the data set with Microsporum canis B68128 is 316 nM; in data set [1], greater than 63.1 µM; in [2], greater than 63.1 µM; in data set [3], greater than 63100 nM; with Rhizopus oryzae IHEM5223, greater than 63.1 µM. The “%-compound metabolised Met_mLM” value in data set [6] came to 97%. The “%-compound metabolised Met_gpLM” value in data set [4] worked out at 100%. Also, the hCYP3A4_BFC_Pct_Inh on CYP3A4 is 29%. In addition, on CYP3A4, the hCYP3A4_BQ_Pct_Inh is on record as 46%. Also, the hCYP3A4_DBF_Pct_Inh at CYP3A4 amounted to 64%.

On to `CC(=O)c1cc(C2=NCc3c(Cl)cccc3-n3cccc32)ccc1F` [Compound 19, 1-[5-(7-chloro-6H-pyrrolo[1,2-a][1,4]benzodiazepin-4-yl)-2-fluorophenyl]-ethanone], for which the melting point fell in the range of 146.2 to 147.7 °C. Further, in the data set with Microsporum canis B68128, the IC50 was 1580 nM. Further, in data set [1], the IC50 was greater than 63.1 µM. In addition, in [2], the IC50 is greater than 63.1 µM. In addition, the IC50 in data set [3] is 1260 nM. Also, the IC50 in the data set on Rhizopus oryzae IHEM5223 was greater than 63.1 µM. Also, the “%-compound metabolised Met_gpLM” value in data set [4] was 80%. Also, at CYP3A4, the hCYP3A4_BFC_Pct_Inh is 26%, the hCYP3A4_BQ_Pct_Inh is 49% and the hCYP3A4_DBF_Pct_Inh turned out to be 49%.

Consider `CC(=O)c1ccc(C2=NCc3c(F)cccc3-n3cccc32)cc1` [Compound 20, 1-[4-(7-fluoro-6H-pyrrolo[1,2-a][1,4]benzodiazepin-4-yl)phenyl]-ethanone], for which the melting point was in the range of 215.2 to 216 °C. Moreover, in the data set with Microsporum canis B68128, the IC50 was 1260 nM. Besides, the IC50 in [1] is greater than 63.1 µM. The IC50 in [2] was greater than 63.1 µM. Moreover, in [3], the IC50 is 631 nM. Besides, the IC50 with Rhizopus oryzae IHEM5223 is greater than 63.1 µM. Moreover, the “%-compound metabolised Met_gpLM” value in [4] was 88%. At CYP3A4, the hCYP3A4_BFC_Pct_Inh amounted to 1%, the hCYP3A4_BQ_Pct_Inh is listed as 25% and the hCYP3A4_DBF_Pct_Inh worked out at 5%.

Turning to `CC(=O)c1ccc(C2=NCc3c(Cl)cc(Cl)cc3-n3cccc32)cc1` [Compound 22, 1-[4-(7,9-dichloro-6H-pyrrolo[1,2-a][1,4]benzodiazepin-4-yl)phenyl]-ethanone], the melting point was 250.2 to 254.2 °C. In addition, the IC50 in the data set with Microsporum canis B68128 is 100 nM. Also, the IC50 in data set [1] was 10 µM. The IC50 in data set [2] was 50.1 µM. Also, the IC50 in data set [3] is 1260 nM. In the data set on Rhizopus oryzae IHEM5223, the IC50 is greater than 63.1 µM. Further, in data set [6], the “%-compound metabolised Met_mLM” value stood at 37%. Further, the “%-compound metabolised Met_gpLM” value in data set [4] amounted to 73%. On CYP3A4, the hCYP3A4_BFC_Pct_Inh is reported as 39%, the hCYP3A4_BQ_Pct_Inh is listed as 63% and the hCYP3A4_DBF_Pct_Inh amounted to 89%.

The compound `CC(=O)c1ccc(C2=NCc3c(F)cc(F)cc3-n3cccc32)cc1` [Compound 24, 1-[4-(7,9-difluoro-6H-pyrrolo[1,2-a][1,4]benzodiazepin-4-yl)phenyl]-ethanone] yielded a melting point of 226.9 to 230 °C. Further, the IC50 in the data set with Microsporum canis B68128 is 2000 nM. Also, the IC50 in [1] was 10 µM. Also, the IC50 in [2] is 7.94 µM. Besides, the IC50 in data set [3] was 2510 nM. Further, the IC50 with Rhizopus oryzae IHEM5223 is greater than 63.1 µM. Besides, the “%-compound metabolised Met_gpLM” value in data set [4] is given as 53%. On CYP3A4, this compound registered a hCYP3A4_BFC_Pct_Inh of 3%, a hCYP3A4_BQ_Pct_Inh of 39% and a hCYP3A4_DBF_Pct_Inh of 3%.

The values are drawn from patent US9040523B2, “Antifungal 5,6-dihydro-4H-pyrrolo[1,2-α][1,4]-benzodiazepines and 6H-pyrrolo[1,2-α][1,4]benzodiazepines substituted with benzene derivatives” (JANSSEN PHARMACEUTICA NV, priority 2010, dated 2015).
